Test results as given in patent publication US10369123B2, “Perk activator for the treatment of neurodegenerative diseases” (DEUTSCHES ZENTRUM FÜR NEURODEGENERATIVE ERKRANKUNGEN E.V. …, priority 2014, dated 2019).

Target: T1, PERK (Homo sapiens, UniProt Q9NZJ5)
T1 sequence (Q9NZJ5 30-1116): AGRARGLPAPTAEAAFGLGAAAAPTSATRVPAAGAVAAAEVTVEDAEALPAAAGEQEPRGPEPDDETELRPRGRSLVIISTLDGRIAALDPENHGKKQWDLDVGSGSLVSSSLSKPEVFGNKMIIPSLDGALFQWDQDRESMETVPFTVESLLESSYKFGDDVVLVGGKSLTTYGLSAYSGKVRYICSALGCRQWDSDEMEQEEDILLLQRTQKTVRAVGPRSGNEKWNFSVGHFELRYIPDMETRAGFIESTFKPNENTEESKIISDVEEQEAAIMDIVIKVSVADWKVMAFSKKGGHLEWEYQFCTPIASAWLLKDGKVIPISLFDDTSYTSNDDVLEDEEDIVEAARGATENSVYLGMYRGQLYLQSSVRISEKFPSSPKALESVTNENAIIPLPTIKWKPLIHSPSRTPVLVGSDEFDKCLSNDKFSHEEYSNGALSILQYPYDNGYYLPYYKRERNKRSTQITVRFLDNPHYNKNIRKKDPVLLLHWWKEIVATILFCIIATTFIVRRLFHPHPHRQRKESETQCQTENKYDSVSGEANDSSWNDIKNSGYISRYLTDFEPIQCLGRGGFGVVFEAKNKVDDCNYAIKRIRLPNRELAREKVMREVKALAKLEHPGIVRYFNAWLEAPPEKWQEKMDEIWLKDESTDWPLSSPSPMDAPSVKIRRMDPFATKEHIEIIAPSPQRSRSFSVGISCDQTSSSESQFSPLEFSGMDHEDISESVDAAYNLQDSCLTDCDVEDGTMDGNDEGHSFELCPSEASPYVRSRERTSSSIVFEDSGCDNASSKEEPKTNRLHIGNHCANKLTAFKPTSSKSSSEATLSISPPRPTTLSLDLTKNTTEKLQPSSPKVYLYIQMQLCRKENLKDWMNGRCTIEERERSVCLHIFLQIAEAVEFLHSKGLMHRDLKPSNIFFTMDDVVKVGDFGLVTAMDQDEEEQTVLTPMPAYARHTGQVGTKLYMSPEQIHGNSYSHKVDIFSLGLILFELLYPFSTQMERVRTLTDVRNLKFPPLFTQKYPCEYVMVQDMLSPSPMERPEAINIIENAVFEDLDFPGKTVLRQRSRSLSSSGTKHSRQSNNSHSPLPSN
Test: Western blot for pEIF2A and pNRF2, annonacin model of tauopathy
Format: cell-based
Design: endogenous in cells; host or cells: LUHMES neurons (differentiated, human); in A5 transduced with lentivirus for 3R-/4R-tau or mCherry, not for PERK
Settings: in the presence of 25 nM annonacin, 48 h
Method: Nunc™ Nunclon™ Delta 6-well (for protein and mRNA) or 48-well (for cell assays) plates (Thermo Fisher Scientific, Waltham, Mass., USA) were coated with 100 μg/ml poly-L-lysine (Sigma-Aldrich, St. Louis, Mo., USA) and 5 μg/ml fibronectin (Sigma-Aldrich). LUHMES (Lund Human Mesencephalic) cells, derived from human embryonic ventral mesencephalic cells by conditional immortalization (Tet-off v-myc over-expression) were seeded out in a concentration of 130,000 cells/cm^2 to achieve a confluence of 50%. They were then differentiated for 8 days in a medium of DMEM/F12 (Sigma-Aldrich), 1 μg/ml tetracycline, […] and 490 μg/ml dbcAMP into post-mitotic neurons with a dopaminergic phenotype (Lotharius et al. 2005). […]
Protein was extracted by scraping the cells from the culture plate with Mammalian Protein Extraction Reagent (M-PER, Thermo Fisher Scientific) and 1× cOmplete Protease Inhibitor Cocktail Tablets (Hoffmann-La Roche, Basel, Switzerland) and 1× PhosSTOP Phosphatase Inhibitor Cocktail Tablets (Hoffmann-La Roche). […] Protein concentrations were determined using the BCA kit (Thermo Fisher Scientific) by heating the samples at 60° C. for 30 min and measuring the absorption on the NanoDrop 2000c Spectrophotometer (Thermo Fisher Scientific). […]

| SMILES | pNRF2 level (PERK activator 200 nM) | pEIF2A level (PERK inhibitor 300 nM) |
| --- | --- | --- |
| CCN(CC)CCC(=O)N1N=C(c2c(-c3ccccc3)c3cc(Br)ccc3[nH]c2=O)CC1c1ccc(Br)cc1 (centres unmarked) [CCT020312, 6-bromo-3-[5-(4-bromo-phenyl)-1-(3-diethylamino-propionyl)-4,5-dihydro-1H-pyrazol-3-yl]-4-phenyl-1H-quinolin-2-one] | increased only pNRF2 significantly | – |
| Cn1cc(-c2ccc3c(c2)CCN3C(=O)Cc2cccc(C(F)(F)F)c2)c2c(N)ncnc21 [GSK2606414, reference compound] | – | reduced pEIF2A levels significantly |
